The values that follow come from US9597407B2, “Targeted antimicrobial moieties” (C3 Jian, Inc., priority 2009, dated 2017).

As usually defined, the MIC is the lowest concentration that inhibits growth of the organism. The low end stands for inhibition by little substance, the high end for a need for much substance. Broadly, the IC50 is the point on the concentration scale where inhibition reaches its midpoint.

Series [1] concerns S. epidermidis. The settings on record: average MIC with standard deviation, n = 10 assays. The method, then:
(§1) The active AMPs, STAMPs and the like can be identified and/or validated using an in vitro screening assay.
(§2) Peptides were evaluated for basic antimicrobial activity by broth microdilution, as described previously (Eckert et al. (2006) Antimicrob Agents Chemother., 50: 3651-3657; Eckert et al. (2006) Antimicrob Agents Chemother., 50: 1480-1488). Briefly, ˜1×10^5 cfu/mL bacteria were diluted in TH (S. mutans), or Mueller-Hinton (MH) broth (all other organisms) and distributed to 96-well plates. Serially-diluted (2-fold) peptides were then added and the plates incubated at 37° C. for 18-24 h. […] All experiments were conducted 10 times.

Series [2] concerns P. aeruginosa. The settings on record: average MIC with standard deviation, n = 10 assays. As to the method:
as §1, §2

For series [3], the system named is P. aeruginosa. In words: Microbial population shift assay, mixed planktonic culture. It is filed as cell-based, Pseudomonas aeruginosa. The settings on record: 10 μM peptide, 24 h, detection limit 200 cfu/mL. As to the method: (§3) Peptide (10 μM) or mock-treatment (1×PBS) was then added and samples were incubated at 37° C. for 24 h under anaerobic conditions (80% N2, 15% CO2, 5% H2). […] Plates were then incubated 37° C. under aerobic conditions (TH plates were incubated anaerobically) and colonies counted after 24 h to determine survivors. […] Gram stains and direct microscopic observation (from select isolated colonies) were undertaken to confirm species identity (data not shown). The detection limit of the assay was 200 cfu/mL.
(§4) We hypothesized that potential MH-STAMP dual-functionality could affect a particular set of bacteria within a mixed population, thereby promoting the outgrowth of non-targeted organisms and “shifting” the constituent makeup. To examine this possibility, defined mixed populations of planktonic cells were treated continuously and the make-up of the community examined after 24 h.

The test system of series [4] is S. mutans. The series can be described thus: Post-antibiotic effect assay, monoculture growth after 10 min treatment. Format: cell-based, Streptococcus mutans. The settings on record: peptide 10 min, then fresh medium. The method, then: The activity and selectivity of MH-STAMPs after a 10 min incubation was determined by growth retardation experiments against targeted and untargeted bacteria in monocultures, as described previously (Id.). Cells from overnight cultures were diluted to ˜5×10^6 cfu/mL in MH (or TH with 1% sucrose for S. mutans), normalized by OD600 0.05-0.1 and seeded to 96-well plates. Cultures were then grown under the appropriate conditions for 2 h (3 h for S. mutans) prior to the addition of peptides for 10 min. Plates were then centrifuged at 3000×g for 5 min, the supernatants discarded, fresh medium returned (MH or TH without sucrose for S. mutans), and incubation resumed. Bacterial growth after treatment was then monitored over time by OD600.
MH-STAMP antimicrobial kinetics was ascertained utilizing a variation of the classical post-antibiotic effect assay, which measures the ability of an agent to affect an organism's growth after a short exposure period. Monocultures of MH-STAMP-targeted and untargeted organisms were exposed to M8(KH)-20, M8(BL)-20, BL(KH)-20, or unmodified BD2.20, then allowed to recover. […] Furthermore, replacement of the targeting region with a non-binding peptide abolishes specific activity.

Series [5] deals with S. mutans. It is filed as cell-based, Streptococcus mutans. Particulars: average MIC with standard deviation, n = 10 assays. As to the method: (§5) The active AMPs, STAMPs and the like can be identified and/or validated using an in vitro screening assay. Indeed, in many instances the AMPs and/or STAMPS described herein will be used in vitro as preservatives, topical antimicrobial treatments, and the like.
(§6) Typically, the in vitro antimicrobial activity of antimicrobial agents is tested using standard NCCLS bacterial inhibition assays, or MIC tests (see, National Committee on Clinical Laboratory Standards “Performance Standards for Antimicrobial Susceptibility Testing,” NCCLS Document M100-S5 Vol. 14, No. 16, December 1994; “Methods for dilution antimicrobial susceptibility test for bacteria that grow aerobically-Third Edition,” Approved Standard M7-A3, National Committee for Clinical Standards, Villanova, Pa.).
(§7) Briefly, ˜1×10^5 cfu/mL bacteria were diluted in TH (S. mutans), or Mueller-Hinton (MH) broth (all other organisms) and distributed to 96-well plates. Serially-diluted (2-fold) peptides were then added and the plates incubated at 37° C. for 18-24 h. […] All experiments were conducted 10 times.

Series [6] deals with Klebsiella pneumoniae KAY 2026. Format: cell-based. The settings on record: K. pneumoniae; average MIC with standard deviation, n = 10 assays. As to the method:
(§8) Streptococcus mutans JM11 (spectinomycin resistant, UA140 background) was grown in Todd-Hewitt (TH) broth under anaerobic conditions (80% N2, 15% CO2, 5% H2) at 37° C. Merritt et al. (2005) J Microbiol Meth., 61: 161-170. All bacteria were grown overnight to an OD600 of 0.8-1.0 prior to appropriate dilution and antimicrobial testing.
as §7

Series [7] concerns Staphylococcus aureus Newmann. Format: cell-based. The settings on record: S. aureus; average MIC with standard deviation, n = 10 assays. As to the method: as §8, §7
Series [8] concerns S. mutans. The series can be described thus: Microbial population shift assay, mixed planktonic culture. It is filed as cell-based, Streptococcus mutans. The settings on record: 10 μM peptide, 24 h, detection limit 200 cfu/mL. The method, then: as §3, §4
The test system of series [9] is E. coli. The series is described as above. Format: cell-based, Escherichia coli. The settings on record: 10 μM peptide, 24 h, detection limit 200 cfu/mL. As to the method:
as §3, §4

For series [10], the system named is S. epidermidis. Described as above. Format: cell-based, Staphylococcus epidermidis. Particulars: 10 μM peptide, 24 h, detection limit 200 cfu/mL. The method, then:
as §3, §4

Series [11] has as its system E. coli. It is filed as cell-based, Escherichia coli. Particulars: average MIC with standard deviation, n = 10 assays. As to the method:
as §5, §6, §7

For a further series, the system named is S. mutans UA140 biofilms. The series can be described thus: Photodynamic antimicrobial assay against single-species biofilms. Particulars: 5 μM, no light. It is filed as cell-based, Streptococcus mutans. The method, then:
To evaluate C16-RB against monoculture biofilms, S. mutans UA140 was grown overnight in TH prior to inoculation for biofilm formation. For biofilms, 1:5000 dilution of overnight culture was made into TH with 1% sucrose in 2 mL centrifuge tubes (200 μL volume) and grown 24 h under anaerobic conditions. After incubation, biofilms were treated for 5 min with 5 or 25 μM C16-RB or 5 μM RB in 1×PBS, or PBS alone, followed by removal of supernatant and exposure to 5 min blue light (emission 400-550 nm, power 400 mW/cm^2) from an Astralis 7 (Ivoclar Vivodent, Austria) handheld LED commonly used as a dental curing light. The light source was suspended 4 cm from the tube bottom (even with the mouth of the tube). A duplicate set of samples were left covered to serve as dark controls. After treatment, biofilms were mechanically disrupted and plated to determine cfu/mL.
After synthesis, the basic photosensitization potential of C16-RB was assessed by challenging mature single-species S. mutans biofilms (grown 24 h) with C16-RB or unmodified RB, followed by blue emission from a dental curing light.

The subject of series [12] is S. mutans JM11 and non-cariogenic oral streptococci in mixed biofilms. The series can be described thus: Selective photodynamic assay against multispecies biofilms. It is filed as cell-based, Streptococcus mutans. The settings on record: mixed biofilm, blue light, plus potassium gluconate. The method, then:
To gauge C16-RB selectivity for S. mutans, similar assays were conducted against multispecies biofilms. Mixed biofilms were seeded by diluting (1:5000) a mixture of equal parts S. oralis, S. gordonii, S. mitis, S. sanguinis, S. salivarius, and S. mutans JM11 (made from overnight cultures) into TH with 1% sucrose, 1% glucose, and 1% mannose. Biofilms were incubated and treated as described above with the addition of vitamin C or potassium gluconate. After the addition of agent and 5 min incubation, biofilms were washed 1× with 1×PBS prior to light exposure. After PDT and biofilm disruption, survivors were plated on TH, and TH supplemented with 800 μg/mL spectinomycin, which allowed for quantitation of surviving total oral streptococci and surviving S. mutans, respectively.
C16-RB was next evaluated for selectivity in mixed cultures containing S. mutans and non-cariogenic oral streptococci that compete for the same niche on the tooth surface. We utilized mixed biofilms of S. mutans transformed with spectinomycin resistance (strain JM11, Merritt, et al., 2005), plus S. oxalis, S. gordonii, S. mitis, S. sanguinis, and S. salivarius. The mixed cultures were grown 24 and then treated with RB or C16-RB as indicated, plus potassium gluconate to minimize killing of untargeted bacteria by reducing the superoxide-producing activity of the free C16-RB not bound to S. mutans. […]

A further series has as its system BHK-21 fibroblasts. The series can be described thus: Cytotoxicity, Promega CellTiterGlo assay. Format: cell-based, hamster. Particulars: BHK cells. As to the method:
Streptococcus oralis ATCC 10557, Streptococcus gordonii (Challis), Streptococcus sanguinis (NY101), Streptococcus mitis ATCC 903, Streptococcus salivarius ATCC 13419 and S. mutans wild-type UA140 and JM11 (spectinomycin-resistant) strains were grown in Todd-Hewitt (TH) broth 37° C. in an anaerobic atmosphere of 80% N2, 10% CO2, and 10% H2. BHK-21 (ATCC CRL-10) fibroblasts were propagated in DMEM with 10% FBS, 1 mM sodium pyruvate, 100 units/mL penicillin G, and 100 μg/mL streptomycin at 37° C. with 5% CO2. Cells were detached with 0.25% trypsin and subcultured as recommended by the supplier.
The effect of RB and C16-RB on human fibroblasts was ascertained by utilizing the Promega CellTiterGlo assay, as described by the manufacturer. Briefly, fibroblasts were grown to confluence, detached, and seeded to ˜5,000 cells per well in a 96-well opaque walled, clear bottom 96-well plate (Nunc International). For long-term dark toxicity, cells were allowed to attach to for 18 h before the culture medium was replaced with medium plus serially-diluted RB or C16-RB (200 μM to 390 nM) or medium alone. After 18-24 h, equal volume Cell Titer Glo reagent was added to each well and mixed. Luciferace activity was then quantified to measure cell viability (Varian Fluorometer in Biolumenescence mode). […] After exposure, cultures were disrupted with Cell Titer Glo and luciferase activity quantitated as above.
A general note: ATP-based viability assays read luminescence as a measure of living cells.

Converted amounts (≈) assume the structure as drawn. Bridge positions count the residues as written; N and C are the ends. Square brackets hold non-standard residues; d marks the D form. Peptide text beside a SMILES is read from it. I, II: the chains in the order shown. Aoc = NCCCCCCCC(=O)O A value given as a limit tells only on which side of the number the result lay.

For `CC[C@H](C)[C@H](NC(=O)[C@H](Cc1ccccc1)NC(=O)CCCCCCCNC(=O)[C@H](CCCCNC(=O)CNC(=O)CNC(=O)CNC(=O)[C@H](C)NC(=O)[C@H](CCC(=O)O)NC(=O)[C@H](CC(N)=O)NC(=O)[C@H](C)NC(=O)[C@H](C)NC(=O)[C@@H](N)CC(=O)O)NC(=O)CNC(=O)CNC(=O)CNC(=O)[C@H](CCCNC(=N)N)NC(=O)[C@H](CC(N)=O)NC(=O)[C@H](CC(C)C)NC(=O)[C@H](Cc1ccccc1)NC(=O)[C@H](CCCNC(=N)N)NC(=O)[C@H](Cc1ccccc1)NC(=O)[C@H](Cc1ccccc1)NC(=O)[C@@H](NC(C)=O)[C@@H](C)O)C(=O)N[C@@H](CCCNC(=N)N)C(=O)N[C@@H](CCCCN)C(=O)N[C@@H](Cc1ccccc1)C(=O)N[C@@H](CC(C)C)C(=O)N[C@@H](CCCCN)C(=O)N[C@@H](CCCCN)C(=O)N[C@@H](Cc1c[nH]c2ccccc12)C(=O)N[C@@H](CC(C)C)C(=O)N[C@@H](CC(C)C)C(N)=O` [M8(BL)-20] (I: Ac-TFFRFLNRGGGK[Aoc]FIRKFLKKWLL-NH2 / II: H-DAANEAGGG; amide I:12-II:C), the MIC against S. epidermidis [1] came to 6.25 µM (≈ 23.7 µg/mL); in the series on P. aeruginosa [2] it was 50 µM (≈ 190 µg/mL); against S. mutans [5] it was 6.25 µM (≈ 23.7 µg/mL); in series [6], 6.88 ± 1.98 µM (≈ 26.1 µg/mL); in [7] it was 18.05 ± 6.58 µM (≈ 68.6 µg/mL); with E. coli [11] it was 5.97 ± 0.94 µM (≈ 22.7 µg/mL). For the same molecule, the “surviving P. aeruginosa cfu/mL” value in the series with P. aeruginosa [3] is recorded as “not affected or affected to a lesser extent”. Also, the “S. mutans growth (OD600) after treatment” value in the series with S. mutans [4] was “effectively retarded”. The “surviving S. mutans cfu/mL” value with S. mutans [8] is on record as “greatly reduced compared to input cfu/mL”. Moreover, the “surviving E. coli cfu/mL” value in the series on E. coli [9] is “not affected or affected to a lesser extent”. In the series with S. epidermidis [10], the “surviving S. epidermidis cfu/mL” value is “not affected or affected to a lesser extent”.
Turning to `O=C1OC2(c3cc(I)c(O)c(I)c3Oc3c2cc(I)c(O)c3I)c2c(Cl)c(Cl)c(Cl)c(Cl)c21` [RB, rose bengal], in the series on S. mutans UA140 biofilms, the “decrease in cfu/mL, dark controls” value is listed as “appreciable decreases in cfu/mL were not observed”. In addition, in series [12], the “ratio of surviving S. mutans:non-cariogenic streptococci cfu” value was roughly 1. This molecule displayed an IC50 with BHK-21 fibroblasts (5 min dark) greater than 100 µM. For the same molecule, the “photo-associated (light-dependent) toxicity” value in the series with BHK-21 fibroblasts (blue light exposure) is “light-dependent toxicity was observed”.
